{"source": "patent US20050020613A1", "about": "“Sustained release opioid formulations and method of use” (priority 2002, published 2005)"}
{"assay_type": "in vivo", "settings": "dose equianalgesic to a 15 mg dose of hydrocodone", "units": {"Equianalgesic Doses of Opioids: Calculated Dose": "mg"}}
{"compound": "COc1ccc2c3c1OC1C(=O)CC[C@@]4(O)[C@@H](C2)N(C)CC[C@]314", "note": "(stereo partly shown) [Oxycodone, 4,5-epoxy-14-hydroxy-3-methoxy-17-methylmorphinan-6-one]", "Equianalgesic Doses of Opioids: Calculated Dose": 13.5}
{"compound": "CCC(=O)C(CC(C)N(C)C)(c1ccccc1)c1ccccc1", "note": "(stereo not shown) [Methadone]", "Equianalgesic Doses of Opioids: Calculated Dose": 9.0}
{"compound": "CN1CC[C@]23CCCC[C@H]2[C@H]1Cc1ccc(O)cc13", "note": "[Levorphanol]", "Equianalgesic Doses of Opioids: Calculated Dose": 1.8}
{"compound": "Meperidine", "Equianalgesic Doses of Opioids: Calculated Dose": 135.0}
{"compound": "COc1ccc2c3c1OC1C(=O)CC[C@H]4[C@@H](C2)N(C)CC[C@]314", "note": "(stereo partly shown) [Hydrocodone, 4,5-epoxy-3-methoxy-17-methylmorphinan-6-one]", "Equianalgesic Doses of Opioids: Calculated Dose": 15.0}
{"compound": "COc1ccc2c3c1O[C@H]1[C@@H](O)C=C[C@H]4[C@@H](C2)N(C)CC[C@@]341", "note": "[Codeine]", "Equianalgesic Doses of Opioids: Calculated Dose": 90.0}
{"assay_type": "in vivo", "settings": "in vivo", "units": {"Equianalgesic Doses of Opioids: Calculated Dose": "mg"}}
{"compound": "CN1CC[C@]23c4c5ccc(O)c4O[C@H]2[C@@H](O)C=C[C@H]3[C@H]1C5", "note": "[Morphine]", "Equianalgesic Doses of Opioids: Calculated Dose": 27.0}
